# In patent publication US20070093505A1, “2,3-Substituted 5,6-diaryl-pyrazine derivatives as cb1 modulators” (ASTRAZENECA AB, priority 2003, published 2007):
# Target: T1, hCB1 (Homo sapiens, UniProt P21554)
# T1 construct: expressed in transfected cells
# Assay: [35S]-GTPγS binding assay on membranes from cells stably transfected with the CB1 gene, inhibition of agonist CP55940
# Type: biochemical
# Settings: EC80 concentration of agonist CP55940, membranes of CB1-transfected cells
# Description: Compounds of the present invention are active against the receptor product of the CB1 gene. The compounds of the present invention are active at the CB1 receptor (IC50<1 micromolar). Most preferred compounds have IC50<200 nanomolar. The affinity of the compounds of the invention for central cannabinoid receptors is demonstrable in methods described in Devane et al., Molecular Pharmacology, 1988, 34,605 or those described in WO01/70700 or EP 656354. Alternatively the assay may be performed as follows.
# 10 μg of membranes prepared from cells stably transfected with the CB1 gene were suspended in […] of 100 mM NaCl, 5 mM MgCl2, 1 mM EDTA, 50 mM HEPES (pH 7.4), 1 mM DTT, 0.1% BSA and 100 μM GDP. To this was added an EC80 concentration of agonist (CP55940), the required concentration of test compound and 0.1 μCi [^35S]-GTPγS. […] Filters were then covered with scintilant and counted for the amount of [^35S]-GTPγS retained by the filter.
# Activity is measured in the absence of all ligands (minimum activity) or in the presence of an EC80 concentration of CP55940 (maximum activity). […] At various concentrations of novel ligand, activity is calculated as a percentage of the maximum activity and plotted. The data are fitted using the equation y=A+((B−A)/1+((C/x)UD)) and the IC50 value determined as the concentration required to give half maximal inhibition of GTPγS binding under the conditions used.
# T1 sequence (P21554 whole entry): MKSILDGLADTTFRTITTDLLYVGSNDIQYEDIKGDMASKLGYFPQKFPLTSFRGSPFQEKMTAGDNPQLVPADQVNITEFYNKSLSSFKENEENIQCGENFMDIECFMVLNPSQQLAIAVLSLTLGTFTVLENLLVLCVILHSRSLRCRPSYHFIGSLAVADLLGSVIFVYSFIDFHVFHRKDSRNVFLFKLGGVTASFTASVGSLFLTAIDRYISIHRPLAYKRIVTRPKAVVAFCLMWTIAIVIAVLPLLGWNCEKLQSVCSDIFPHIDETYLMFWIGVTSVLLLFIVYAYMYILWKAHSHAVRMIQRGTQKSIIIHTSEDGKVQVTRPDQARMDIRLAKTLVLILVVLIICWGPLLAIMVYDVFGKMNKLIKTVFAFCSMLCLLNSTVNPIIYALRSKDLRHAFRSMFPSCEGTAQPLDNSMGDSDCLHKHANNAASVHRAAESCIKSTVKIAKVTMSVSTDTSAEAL
smiles,measurement,value
"CC1COC(c2nc(-c3ccc(Cl)cc3)c(-c3ccc(Cl)cc3)nc2C(=O)OC(C)(C)C)=N1 (stereo not shown) [Example 5, 5,6-bis(4-chlorophenyl)-3-(4-methyl-4,5-dihydrooxazol-2-yl)-pyrazine-2-carboxylic acid tert-butylester]",IC50,1.8 nM
